Test results published in US20090209535A1, “6-ETHER/THIOETHER-PURINES AS TOPOISOMERASE II CATALYTIC INHIBITORS AND THEIR USE IN THERAPY” (TOPOTARGET A/S, priority 2005, published 2009).
“And” between values parts separate entries of the source, which are not always exact repeats. Equal entries are not always repeated. Where two headings read alike, the source gives them in different places.

What was measured:
human SCLC OC—NYH cells = assay: Clonogenic assay, antagonism of etoposide-induced cytotoxicity; type: cell-based; details: 20 μM etoposide, one hour; 20 min pre-exposure
Experimental: Cells were then plated in 0.3% agar in 6 cm petri dishes with sheep red blood cells as feeder layer in triplicate, and were incubated under the same conditions as described above. Plates were counted after 3 weeks.
20 μM etoposide was then added, and the cells were incubated for one hour. Next, the drugs were washed out and the cells were plated and counted after three weeks as described herein.

human SCLC NCI-H69 cells = assay: Protection from etoposide-induced cytotoxicity, NCI-H69; type: cell-based
Experimental: Human small cell lung cancer (SCLC) OC—NYH (de Leij et al., 1985) and NCI-H69 cells (Cuttitta et al., 1981) were grown in RPMI-1640 medium supplemented with 10% fetal calf serum, 100 U/mL penicillin-streptomycin at 37° C. in a humidified atmosphere containing 5% CO2 in the dark.
Clonogenic assay was performed essentially as described in Jensen et al., 1993. […] Cells were then plated in 0.3% agar in 6 cm petri dishes with sheep red blood cells as feeder layer in triplicate, and were incubated under the same conditions as described above. Plates were counted after 3 weeks.

topoisomerase II α [1] = molecular target: T1, topoisomerase II α (Homo sapiens, UniProt P11388); assay: Topoisomerase II ATPase assay (coupled, NADH oxidation); type: biochemical; design: made in house; host or cells: yeast (over-expressing yeast cells)
Experimental: The reaction was monitored spectrophotometrically at 340 nm using a Bio-Tek EL808 Ultra Micro plate Reader connected to a computer with KC4 Software installed (Bio-Tek Instruments, U.S.). The change in absorbance was related to ADP production using A340^1M=6220 cm^−1. […] The rate of ATP hydrolysis, V, was determined from the linear part of the curve.
The steady-state rate of ATP hydrolysis was determined using a coupled ATPase assay as described herein. […] Error bars represent SEM of two independent experiments each performed in duplicate.
The steady-state rate of ATP hydrolysis was determined as described in for FIG. 3 and as described herein. In this analysis, the rate of ATP hydrolysis in the absence of drug was set to one in all experiments. Error bars represent SEM of 2 or 3 independent experiments each preformed in duplicate.

topoisomerase II α [2] = molecular target: T1, topoisomerase II α; assay: Topoisomerase II retention on DNA/streptavidin beads (salt-stable complex); type: biochemical; design: made in house; host or cells: yeast (over-expressing yeast cells)
Experimental: An assay capable of measuring non-covalent complexes of topoisomerase II on closed circular DNA was performed as described in Morris et al., 2000, with modifications. When performing six reactions, 60 μL M280 streptavidin coated bead (Dynal A/S, Oslo, Norway) slurry corresponding to 600 μg beads was transferred to a 1.5 mL tube that was then placed in a Dynal MPC-E (magnetic particle concentrator) rack (Dynal A/S, Oslo, Norway) for 1 to 2 minutes until the beads had settled on the tube wall. The beads were then washed twice in the DNA binding solution supplied with the kilobase binding kit (Dynal A/S, Oslo, Norway) by repeating this step. Finally, the beads were re-suspended in 250 μL DNA binding solution. A preparation of biotin labelled plasmid DNA containing a 5-kb super coiled circular DNA molecule carrying 8 successive PNA (Peptide Nucleic Acid) linked biotin labels at one known position (pGeneGrip biotin blank vector, Gene Therapy Systems Inc., San Diego, Calif., USA) was made by mixing 220 μL distilled water and 30 μL biotinylated DNA. After mixing the beads and the DNA preparation, the sample was left overnight at room temperature under gentle agitation to assure optimal formation of the DynaBeads DNA complex. Next, the complex was washed twice in 480 μL wash buffer (10 mM TRIS-HCL, pH 7.5, 2 M NaCl, 1 mM EDTA), once in distilled water, and once in topoisomerase reaction buffer (10 mM TRIS-HCl, pH 7.9, 50 mM NaCl, 50 mM KCl, 5 mM MgCl2, 1 mM EDTA, […] BSA). Then, the beads were re-suspended in 600 μL topoisomerase II buffer and divided into 6 tubes. 100 μL reactions containing plasmid DNA coated DynaBeads, topoisomerase II buffer, 2 μg purified human topoisomerase […] and drugs were incubated for 30 minutes at 37° C. When included, ATP was present at 1 mM. […]
FIG. 7 describes the results of studies of the ability of NSC 35866 to stabilise a salt-stable complex of human topoisomerase II α on covalently closed circular DNA. Retention of salt-stable (to 2 M KCl) complexes of human topoisomerase II α on circular DNA attached to magnetic beads via biotin-streptavidin linkage was determined by eluting retained protein by adding running buffer containing 4% SDS followed by heating to 100° C. for 10 minutes. The amount of human topoisomerase II α protein retained was then determined by running the samples on 7% SDS-PAGE gels followed by straining with GelCode Blue Strain Reagent (Pierce, Rockford, Ill., USA): Lane 1, no drug; Lane 2, 200 μM ICRF-187; Lane 3, 30 μM NSC 35866; Lane 4, 100 μM NSC 35866; Lane 5, 300 μM NSC 35866; Lane 6, 1000 μM NSC 35866; Lane K, 2 μg human topoisomerase II α. […]

T1 sequence (P11388 whole entry): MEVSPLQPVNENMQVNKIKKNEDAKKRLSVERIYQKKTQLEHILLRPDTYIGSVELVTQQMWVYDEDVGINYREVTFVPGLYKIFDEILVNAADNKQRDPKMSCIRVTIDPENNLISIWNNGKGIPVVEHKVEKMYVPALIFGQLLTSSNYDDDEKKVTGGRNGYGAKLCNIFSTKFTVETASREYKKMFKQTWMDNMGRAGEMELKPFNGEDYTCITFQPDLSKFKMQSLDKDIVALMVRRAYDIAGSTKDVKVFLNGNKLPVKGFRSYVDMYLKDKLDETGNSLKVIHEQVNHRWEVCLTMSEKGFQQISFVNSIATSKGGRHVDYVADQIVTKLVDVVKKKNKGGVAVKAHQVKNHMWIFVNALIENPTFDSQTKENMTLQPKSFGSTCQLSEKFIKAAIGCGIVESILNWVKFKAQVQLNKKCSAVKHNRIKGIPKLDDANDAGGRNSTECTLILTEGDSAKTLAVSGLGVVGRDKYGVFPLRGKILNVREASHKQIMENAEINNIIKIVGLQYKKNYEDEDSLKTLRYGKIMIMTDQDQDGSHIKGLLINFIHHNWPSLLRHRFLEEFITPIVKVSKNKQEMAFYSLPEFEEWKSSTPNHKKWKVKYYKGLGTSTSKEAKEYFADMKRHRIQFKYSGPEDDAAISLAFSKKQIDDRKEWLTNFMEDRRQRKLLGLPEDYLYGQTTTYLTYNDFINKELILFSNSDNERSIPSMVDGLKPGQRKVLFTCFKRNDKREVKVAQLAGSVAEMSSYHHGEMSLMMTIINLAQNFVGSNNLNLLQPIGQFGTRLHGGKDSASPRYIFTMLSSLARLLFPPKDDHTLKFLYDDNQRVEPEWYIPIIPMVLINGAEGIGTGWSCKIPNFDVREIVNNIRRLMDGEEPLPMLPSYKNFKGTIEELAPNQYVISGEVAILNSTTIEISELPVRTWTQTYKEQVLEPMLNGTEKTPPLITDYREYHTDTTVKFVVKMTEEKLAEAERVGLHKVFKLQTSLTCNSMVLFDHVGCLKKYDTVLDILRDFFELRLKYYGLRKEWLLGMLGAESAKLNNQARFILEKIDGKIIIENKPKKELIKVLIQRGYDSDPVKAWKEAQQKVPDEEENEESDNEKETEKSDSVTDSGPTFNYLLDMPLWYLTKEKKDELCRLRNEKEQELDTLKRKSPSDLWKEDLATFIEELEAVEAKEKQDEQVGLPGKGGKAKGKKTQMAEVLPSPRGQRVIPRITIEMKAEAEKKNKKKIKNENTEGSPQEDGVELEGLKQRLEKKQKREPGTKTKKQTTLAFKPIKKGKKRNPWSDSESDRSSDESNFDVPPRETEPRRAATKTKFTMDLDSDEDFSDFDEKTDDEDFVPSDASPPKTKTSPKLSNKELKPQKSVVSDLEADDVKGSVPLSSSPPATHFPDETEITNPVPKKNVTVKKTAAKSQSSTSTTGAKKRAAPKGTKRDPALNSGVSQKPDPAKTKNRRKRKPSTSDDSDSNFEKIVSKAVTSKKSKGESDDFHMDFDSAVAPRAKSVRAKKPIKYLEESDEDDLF

With Nc1nc(SCCc2ccccc2)c2nc[nH]c2n1 [NSC 35866, 2-amino-6-(phenylethylthio)-purine] the “reduction of etoposide-induced cytotoxicity” value (human SCLC OC—NYH cells) was “up to 50 fold”, the “protection from etoposide-induced cytotoxicity, in words” value (human SCLC NCI-H69 cells) was “capable of protecting” and the inhibition at 300 µM (topoisomerase II α [1]; 300 μM, in the presence of DNA, read-out: inhibition of the total ATPase activity) was 75%. For the same compound, the “inhibition of ATPase activity in the presence of DTT, in words” value (topoisomerase II α [1]; 10 mM DTT in the reaction buffer) was “could inhibit ATPase activity”, the IC50 (topoisomerase II α [1]; in the presence of DNA (DNA-stimulated), read-out: IC50, inhibition of ATPase activity) was 50 µM and 30 to 100 µM and the IC50 (topoisomerase II α [1]; without DNA, read-out: IC50, inhibition of DNA-independent ATPase activity) was 300 µM. The “retention of topoisomerase II on DNA beads after 2 M KCl wash, in words” value (topoisomerase II α [2]; 30, 100, 300 and 1000 μM, with ATP) was “traps human topoisomerase II α as a salt-stable complex on circular closed DNA in a dose-dependent manner” and the “retention of topoisomerase II on DNA beads, in words” value (topoisomerase II α [2]; in the absence of ATP) was “only at 300 and 1000 μM”.
